Assay results as given in patent US10519154B2, “7-substituted 1-pyridyl-naphthyridine-3-carboxylic acid amides and use thereof” (Bayer Pharma Aktiengesellschaft, priority 2016, dated 2019).

Target: T1, human M2 receptor (Homo sapiens, UniProt P08172)
T1 sequence (P08172 1-466): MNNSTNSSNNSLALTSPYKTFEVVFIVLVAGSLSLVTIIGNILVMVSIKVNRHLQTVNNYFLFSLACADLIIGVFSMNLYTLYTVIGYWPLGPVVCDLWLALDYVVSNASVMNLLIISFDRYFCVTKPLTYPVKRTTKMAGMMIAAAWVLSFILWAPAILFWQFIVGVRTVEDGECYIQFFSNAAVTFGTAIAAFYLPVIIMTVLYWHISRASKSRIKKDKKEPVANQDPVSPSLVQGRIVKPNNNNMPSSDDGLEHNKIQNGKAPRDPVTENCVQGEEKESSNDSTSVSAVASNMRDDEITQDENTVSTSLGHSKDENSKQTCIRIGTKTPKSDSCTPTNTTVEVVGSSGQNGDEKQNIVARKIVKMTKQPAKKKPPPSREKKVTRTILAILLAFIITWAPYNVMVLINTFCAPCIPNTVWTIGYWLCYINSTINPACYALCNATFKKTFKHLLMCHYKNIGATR
Test: Functional M2-GIRK1/4 activation test: allosteric potency (EC50) and efficiency
Conditions: for EC50: Receptor activity EC50, CHO-DUKX-M2-GIRK cells, acetylcholine at EC20, in some cases mean of two or more determinations; for Emax: read-out: Efficiency, boosting of the acetylcholine effect at EC20 acetylcholine concentration, CHO-DUKX-M2-GIRK cells

SMILES	EC50	Emax
CC(C)(CC(F)(F)F)NC(=O)c1cn(-c2ncc(F)cc2F)c2nc(N3C[C@@H](O)CC3=O)ccc2c1=O [Example 80, 1-(3,5-Difluoropyridin-2-yl)-7-[(4S)-4-hydroxy-2-oxopyrrolidin-1-yl]-4-oxo-N-(4,4,4-trifluoro-2-methylbutan-2-yl)-1,4-dihydro-1,8-naphthyridine-3-carboxamide]	120 nM	100%
CC(C)C[C@@H](NC(=O)c1cn(-c2ncc(F)cc2F)c2nc(N3C[C@@H](O)[C@H](O)C3)ccc2c1=O)C(F)(F)F [Example 81, 1-(3,5-Difluoropyridin-2-yl)-7-[(3R,4R)-3,4-dihydroxypyrrolidin-1-yl]-4-oxo-N-[(2R)-1,1,1-trifluoro-4-methylpentan-2-yl]-1,4-dihydro-1,8-naphthyridine-3-carboxamide]	15 nM	100%
CC(C)C[C@H](NC(=O)c1cn(-c2ncc(F)cc2F)c2nc(N3C[C@@H](O)[C@H](O)C3)ccc2c1=O)C(F)(F)F [Example 82, 1-(3,5-Difluoropyridin-2-yl)-7-[(3R,4R)-3,4-dihydroxypyrrolidin-1-yl]-4-oxo-N-[(2S)-1,1,1-trifluoro-4-methylpentan-2-yl]-1,4-dihydro-1,8-naphthyridine-3-carboxamide]	28 nM	100%
CC(C)(C)[C@@H](NC(=O)c1cn(-c2ncc(F)cc2F)c2nc(N3C[C@@H](O)[C@H](O)C3)ccc2c1=O)C(F)(F)F [Example 86, 1-(3,5-Difluoropyridin-2-yl)-7-[(3R,4R)-3,4-dihydroxypyrrolidin-1-yl]-4-oxo-N-[(2R)-1,1,1-trifluoro-3,3-dimethylbutan-2-yl]-1,4-dihydro-1,8-naphthyridine-3-carboxamide]	19 nM	100%
O=C(NC1(C(F)(F)F)CCCC1)c1cn(-c2ncc(F)cc2F)c2nc(N3C[C@@H](O)[C@H](O)C3)ccc2c1=O [Example 87, 1-(3,5-Difluoropyridin-2-yl)-7-[(3R,4R)-3,4-dihydroxypyrrolidin-1-yl]-4-oxo-N-[1-(trifluoromethyl)cyclopentyl]-1,4-dihydro-1,8-naphthyridine-3-carboxamide]	63 nM	100%
CC(C)(CC(F)(F)F)NC(=O)c1cn(-c2ncc(F)cc2F)c2nc(N3C[C@@H](O)[C@H](O)C3)ccc2c1=O [Example 91, 1-(3,5-Difluoropyridin-2-yl)-7-[(3R,4R)-3,4-dihydroxypyrrolidin-1-yl]-4-oxo-N-(4,4,4-trifluoro-2-methylbutan-2-yl)-1,4-dihydro-1,8-naphthyridine-3-carboxamide]	280 nM	99%
CC(C)(C)[C@H](NC(=O)c1cn(-c2ncc(F)cc2F)c2nc(N3C[C@@H](O)[C@H](O)C3)ccc2c1=O)C(F)(F)F [Example 99, 1-(3,5-Difluoropyridin-2-yl)-7-[(3R,4R)-3,4-dihydroxypyrrolidin-1-yl]-4-oxo-N-[(2S)-1,1,1-trifluoro-3,3-dimethylbutan-2-yl]-1,4-dihydro-1,8-naphthyridine-3-carboxamide]	38 nM	100%
CC(C)(C)[C@H](NC(=O)c1cn(-c2ncc(F)cc2F)c2nc(N3CCNC3=O)ccc2c1=O)C(F)(F)F [Example 100, 1-(3,5-Difluoropyridin-2-yl)-4-oxo-7-(2-oxoimidazolidin-1-yl)-N-[(2S)-1,1,1-trifluoro-3,3-dimethylbutan-2-yl]-1,4-dihydro-1,8-naphthyridine-3-carboxamide]	26 nM	100%
O=C(NC12CC(C1)C2)c1cn(-c2ncc(F)cc2F)c2nc(N3C[C@@H](O)CC3=O)ccc2c1=O [Example 101, N-(Bicyclo[1.1.1]pent-1-yl)-1-(3,5-difluoropyridin-2-yl)-7-[(4S)-4-hydroxy-2-oxopyrrolidin-1-yl]-4-oxo-1,4-dihydro-1,8-naphthyridine-3-carboxamide]	585 nM	78.5%
O=C(NC12CC(F)(C1)C2)c1cn(-c2ncc(F)cc2F)c2nc(N3C[C@@H](O)CC3=O)ccc2c1=O [Example 102, 1-(3,5-Difluoropyridin-2-yl)-N-(3-fluorobicyclo[1.1.1]pent-1-yl)-7-[(4S)-4-hydroxy-2-oxopyrrolidin-1-yl]-4-oxo-1,4-dihydro-1,8-naphthyridine-3-carboxamide]	1060 nM	89%
CC(CF)(CF)NC(=O)c1cn(-c2ncc(F)cc2F)c2nc(N3C[C@@H](O)[C@H](O)C3)ccc2c1=O [Example 103, N-(1,3-Difluoro-2-methylpropan-2-yl)-1-(3,5-difluoropyridin-2-yl)-7-[(3R,4R)-3,4-dihydroxypyrrolidin-1-yl]-4-oxo-1,4-dihydro-1,8-naphthyridine-3-carboxamide]	305 nM	100%
CC[C@H](NC(=O)c1cn(-c2ncc(F)cc2F)c2nc(N3C(=O)C4(CC4)C(O)C3C)ccc2c1=O)C(F)(F)F (stereo partly drawn) [Example 113, 1-(3,5-Difluoropyridin-2-yl)-7-[7-hydroxy-6-methyl-4-oxo-5-azaspiro[2.4]hept-5-yl]-4-oxo-N-[(2S)-1,1,1-trifluorobutan-2-yl]-1,4-dihydro-1,8-naphthyridine-3-carboxamide]	145 nM	97%
CC1C(O)C2(CC2)C(=O)N1c1ccc2c(=O)c(C(=O)N[C@H](C3CC3)C(F)(F)F)cn(-c3ncc(F)cc3F)c2n1 (stereo partly drawn) [Example 114, N-[(1R)-1-Cyclopropyl-2,2,2-trifluoroethyl]-1-(3,5-difluoropyridin-2-yl)-7-[7-hydroxy-6-methyl-4-oxo-5-azaspiro[2.4]hept-5-yl]-4-oxo-1,4-dihydro-1,8-naphthyridine-3-carboxamide]	111 nM	96.5%
CC1C(O)C2(CC2)C(=O)N1c1ccc2c(=O)c(C(=O)N[C@@H](C3CC3)C(F)(F)F)cn(-c3ncc(F)cc3F)c2n1 (stereo partly drawn) [Example 115, N-[(1S)-1-Cyclopropyl-2,2,2-trifluoroethyl]-1-(3,5-difluoropyridin-2-yl)-7-[7-hydroxy-6-methyl-4-oxo-5-azaspiro[2.4]hept-5-yl]-4-oxo-1,4-dihydro-1,8-naphthyridine-3-carboxamide]	150 nM	89%
CC1C(O)C2(CC2)C(=O)N1c1ccc2c(=O)c(C(=O)N[C@@H](C)C(F)(F)F)cn(-c3ncc(F)cc3F)c2n1 (stereo partly drawn) [Example 116, 1-(3,5-Difluoropyridin-2-yl)-7-[7-hydroxy-6-methyl-4-oxo-5-azaspiro[2.4]hept-5-yl]-4-oxo-N-[(2S)-1,1,1-trifluoropropan-2-yl]-1,4-dihydro-1,8-naphthyridine-3-carboxamide]	335 nM	96%
CC[C@H](NC(=O)c1cn(-c2c(F)cncc2F)c2nc(N3C[C@@H](O)[C@H](O)C3)ccc2c1=O)C(F)(F)F [Example 118, 1-(3,5-Difluoropyridin-4-yl)-7-[(3R,4R)-3,4-dihydroxypyrrolidin-1-yl]-4-oxo-N-[(2S)-1,1,1-trifluorobutan-2-yl]-1,4-dihydro-1,8-naphthyridine-3-carboxamide]	500 nM	100%
CC[C@H](NC(=O)c1cn(-c2ncc(F)cc2F)c2nc(N3CCN(CCO)C3=O)ccc2c1=O)C(F)(F)F [Example 119, 1-(3,5-Difluoropyridin-2-yl)-7-[3-(2-hydroxyethyl)-2-oxoimidazolidin-1-yl]-4-oxo-N-[(2S)-1,1,1-trifluorobutan-2-yl]-1,4-dihydro-1,8-naphthyridine-3-carboxamide]	790 nM	92%
CC[C@H](NC(=O)c1cn(-c2ncc(F)cc2F)c2nc(N3CCCN(CCO)C3=O)ccc2c1=O)C(F)(F)F [Example 120, 1-(3,5-Difluoropyridin-2-yl)-7-[3-(2-hydroxyethyl)-2-oxotetrahydropyrimidin-1(2H)-yl]-4-oxo-N-[(2S)-1,1,1-trifluorobutan-2-yl]-1,4-dihydro-1,8-naphthyridine-3-carboxamide]	400 nM	100%
O=C(N[C@H](C1CC1)C(F)(F)F)c1cn(-c2ncc(F)cc2F)c2nc(N3CCN(CCO)C3=O)ccc2c1=O [Example 121, N-[(1R)-1-Cyclopropyl-2,2,2-trifluoroethyl]-1-(3,5-difluoropyridin-2-yl)-7-[3-(2-hydroxyethyl)-2-oxoimidazolidin-1-yl]-4-oxo-1,4-dihydro-1,8-naphthyridine-3-carboxamide]	320 nM	99%
O=C(N[C@H](C1CC1)C(F)(F)F)c1cn(-c2ncc(F)cc2F)c2nc(N3CCCN(CCO)C3=O)ccc2c1=O [Example 122, N-[(1R)-1-Cyclopropyl-2,2,2-trifluoroethyl]-1-(3,5-difluoropyridin-2-yl)-7-[3-(2-hydroxyethyl)-2-oxotetrahydropyrimidin-1(2H)-yl]-4-oxo-1,4-dihydro-1,8-naphthyridine-3-carboxamide]	220 nM	92%
O=C(N[C@@H](C1CC1)C(F)(F)F)c1cn(-c2ncc(F)cc2F)c2nc(N3CCCN(CCO)C3=O)ccc2c1=O [Example 123, N-[(1S)-1-Cyclopropyl-2,2,2-trifluoroethyl]-1-(3,5-difluoropyridin-2-yl)-7-[3-(2-hydroxyethyl)-2-oxotetrahydropyrimidin-1(2H)-yl]-4-oxo-1,4-dihydro-1,8-naphthyridine-3-carboxamide]	240 nM	98%
